This note sets out measurements from ChEMBL document CHEMBL1201862, “PubChem BioAssay data set” (2004).

Each structure is given as a SMILES string.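 The compound was tested at five concentrations on cells cultured in 96-well plates, with a 48-hour exposure period. GI50 is the concentration that inhibits growth by half.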 The source made the active and inactive calls. Rule as the data show it: active = GI50 up to about 1.1 µM and inactive = higher.

Some test systems named below: SF-268; UO-31; UACC-257; OVCAR-4; MDA-N; SK-MEL-2; EKVX; HCT-15; HT-29; UACC-62; SF-295; HL-60; HCT-116; KM12; RPMI-8226; SK-MEL-5; SNB-75; T47D; CAKI-1; DMS-273.
Common to all, as to assay: inhibition of tumour cell growth, NCI panel, 48 h

As for `O=C(O)c1cccc(S(=O)(=O)NCCO)c1`, the GI50 in the assay with SF-268, in the assay on UO-31, in the assay with UACC-257, with OVCAR-4, in the assay with MDA-N and with SK-MEL-2 was > 100 µM (inactive) in each case. For the same compound, the GI50 in the assay on EKVX is > 100 µM (inactive); with HCT-15 it was > 100 µM; in the assay with HT-29, > 100 µM (inactive); in the assay with UACC-62 it was > 100 µM (inactive); in the assay on SF-295 it was > 100 µM (inactive); in the assay with HL-60, > 100 µM (inactive). Further, the GI50 in the assay on HCT-116, with KM12, in the assay on RPMI-8226, with SK-MEL-5, in the assay on SNB-75 and in the assay with T47D was > 100 µM (inactive) each time. Also, in the assay with CAKI-1, the GI50 is > 100 µM (inactive).
Consider `O=C(O)CCSCc1ccc(I)cc1`, for which the GI50 with SF-268, with UO-31, in the assay with UACC-257, in the assay with OVCAR-4, in the assay on MDA-N and in the assay with SK-MEL-2 was > 100 µM (inactive) in each case. Further, the GI50 in the assay with EKVX is > 100 µM (inactive); in the assay with HCT-15, > 100 µM; in the assay on HT-29 it was > 100 µM (inactive); in the assay with UACC-62, > 100 µM (inactive); with SF-295 it was > 100 µM (inactive); in the assay on HL-60 it was > 100 µM (inactive). Further, the GI50 in the assay on HCT-116 is > 100 µM (inactive); in the assay with KM12, > 100 µM (inactive); in the assay with RPMI-8226, > 100 µM (inactive); with SK-MEL-5, > 100 µM (inactive); in the assay on SNB-75, 72.4 µM (inactive); with T47D, > 100 µM (inactive). Moreover, the GI50 in the assay on CAKI-1 is > 100 µM (inactive).
For `CC(C)(C)NC(NC(C)(C)C)=C(/C=C(/Cl)[N+](=O)[O-])[N+](=O)[O-]`, the GI50 is 74.6 µM (inactive) in the assay on SF-268; > 100 µM (inactive) in the assay with UO-31; 94 µM (inactive) in the assay with UACC-257; 17.1 µM (inactive) in the assay with OVCAR-4; 26.2 µM (inactive) in the assay on MDA-N; > 100 µM (inactive) with SK-MEL-2. In addition, the GI50 is > 100 µM (inactive) in the assay with EKVX; 73.1 µM in the assay on HCT-15; 41.8 µM (inactive) in the assay with HT-29; 42.6 µM (inactive) in the assay with UACC-62; > 100 µM (inactive) in the assay on SF-295; 29.5 µM (inactive) with HL-60. In addition, the GI50 with HCT-116 is 34.3 µM (inactive); in the assay on KM12, > 100 µM (inactive); with RPMI-8226, 67.3 µM (inactive); with SK-MEL-5 it was 44.9 µM (inactive); in the assay with SNB-75 it was 0.0395 µM (active); in the assay on T47D, 68.5 µM (inactive). For the same compound, in the assay on CAKI-1, the GI50 was > 100 µM (inactive).
For the compound `C/C(=N\NC(=S)Nc1ccc(Cl)cc1)c1nc2cccnc2[nH]1`, the GI50 is 0.438 µM (active) in the assay on SF-268; 0.713 µM (active) in the assay with UO-31; 2.28 µM (inactive) with UACC-257; 5.64 µM (inactive) in the assay with OVCAR-4; 5.13 µM (inactive) with MDA-N; 10.5 µM (inactive) in the assay on SK-MEL-2. Moreover, the GI50 with EKVX was 0.608 µM (active); with HCT-15, 2.39 µM; in the assay with HT-29, 2.56 µM (inactive); with UACC-62, 1.87 µM (inactive); in the assay with SF-295, 2.15 µM (inactive); with HL-60 it was 0.818 µM (active). In addition, the GI50 in the assay with HCT-116 is 1.53 µM (inactive); in the assay on KM12, 1.23 µM (inactive); in the assay on RPMI-8226 it was 3.27 µM (inactive); in the assay with SK-MEL-5, 1.67 µM (inactive); in the assay on SNB-75, 4.91 µM (inactive); in the assay on T47D it was 3.37 µM (inactive). The GI50 in the assay with CAKI-1 is 1.53 µM (inactive).
Consider `Cc1ccc(C(=O)C(Cl)C(Cl)c2ccc(C)cc2)cc1` (centres undefined), for which the GI50 in the assay with SF-268 was 5.56 µM (inactive); in the assay with UO-31, 2.06 µM (inactive); in the assay on UACC-257 it was 1.92 µM (inactive); in the assay with OVCAR-4, 2.33 µM (inactive); with MDA-N, 2.21 µM (inactive); in the assay with SK-MEL-2 it was 16.3 µM (inactive). For the same compound, the GI50 is 5.42 µM (inactive) with EKVX; 1.83 µM with HCT-15; 2.12 µM (inactive) in the assay with HT-29; 3.67 µM (inactive) in the assay with UACC-62; 11.4 µM (inactive) in the assay with SF-295; 1.24 µM (inactive) in the assay with HL-60. The GI50 with HCT-116 was 1.88 µM (inactive); with KM12, 3.68 µM (inactive); with RPMI-8226, 1.56 µM (inactive); in the assay with SK-MEL-5 it was 2.34 µM (inactive); in the assay on SNB-75 it was 8.22 µM (inactive); in the assay on T47D, 2.08 µM (inactive). Moreover, in the assay on CAKI-1, the GI50 was 2.59 µM (inactive).
On to `O=C(c1ccccc1)C(Nc1ccc2ccccc2c1)c1ccccc1` (centres undefined), for which the GI50 in the assay with SF-268 was 39.5 µM (inactive); in the assay with UO-31, > 65 µM (inactive); in the assay with UACC-257, 15.3 µM (inactive); in the assay on OVCAR-4 it was 38.1 µM (inactive); with MDA-N it was 7.05 µM (inactive); with SK-MEL-2, 14.2 µM (inactive). The GI50 is 17.6 µM (inactive) with EKVX; 29 µM in the assay on HCT-15; 24.5 µM (inactive) in the assay on HT-29; 18.2 µM (inactive) in the assay on UACC-62; 24.7 µM (inactive) in the assay on SF-295; 13.1 µM (inactive) with HL-60. In addition, the GI50 with HCT-116 is 15.7 µM (inactive); in the assay on KM12, 19.8 µM (inactive); in the assay on RPMI-8226, 11.1 µM (inactive); in the assay with SK-MEL-5, 16.9 µM (inactive); in the assay on SNB-75, 33.5 µM (inactive); in the assay on T47D, 11.3 µM (inactive). Besides, in the assay on CAKI-1, the GI50 is > 100 µM (inactive).
For `Nc1ncnc2c1ncn2C1CC(OC2CCCCO2)C(CO)O1` (centres undefined), the GI50 in the assay with SF-268 was > 100 µM (inactive); in the assay on UO-31, > 100 µM (inactive); with UACC-257, > 100 µM (inactive); with OVCAR-4, > 100 µM (inactive); in the assay on SK-MEL-2, > 100 µM (inactive); in the assay on EKVX, 67.5 µM (inactive). The GI50 in the assay with HCT-15 is > 100 µM; in the assay on HT-29, > 100 µM (inactive); in the assay on SF-295, > 100 µM (inactive); with HL-60, > 100 µM (inactive); in the assay on HCT-116, > 100 µM (inactive); with KM12, > 100 µM (inactive). The GI50 in the assay with RPMI-8226 and in the assay with DMS-273 was > 100 µM (inactive) throughout.
As for `COc1cc(C(C[N+](=O)[O-])SC(C)=O)ccc1OCc1ccccc1` (centres undefined), the GI50 is 6.14 µM (inactive) in the assay on SF-268; 4.57 µM (inactive) in the assay on UO-31; 5.02 µM (inactive) in the assay with UACC-257; 14.4 µM (inactive) in the assay with OVCAR-4; 2.88 µM (inactive) in the assay on MDA-N; 7.59 µM (inactive) in the assay with SK-MEL-2. For the same compound, the GI50 in the assay on EKVX was 19.8 µM (inactive); with HCT-15, 3.08 µM; in the assay with HT-29, 2.4 µM (inactive); in the assay with UACC-62, 3.09 µM (inactive); in the assay with SF-295, 2.9 µM (inactive); with HL-60 it was 0.261 µM (active). The GI50 in the assay on HCT-116 is 4.13 µM (inactive); with KM12, 4.85 µM (inactive); with RPMI-8226, 1.39 µM (inactive); in the assay with SK-MEL-5, 9.04 µM (inactive); with SNB-75, 11.4 µM (inactive); in the assay on T47D, 20.5 µM (inactive). Besides, in the assay with CAKI-1, the GI50 was 12 µM (inactive).
On to `C=C1C(=O)OC2/C=C(\C)CC/C=C(\C)CC(OC(=O)/C(=C/CO)CO)[C@@H]12` (some centres undefined), for which the GI50 was 20.7 µM (inactive) with SF-268; 11.6 µM (inactive) in the assay on UO-31; 7.85 µM (inactive) with UACC-257; 13.1 µM (inactive) in the assay with OVCAR-4; 5.45 µM (inactive) with MDA-N; 16.9 µM (inactive) in the assay on SK-MEL-2. The GI50 in the assay with EKVX is 15.2 µM (inactive); in the assay with HCT-15 it was 5.87 µM; with HT-29, 7.41 µM (inactive); in the assay on UACC-62, 17.7 µM (inactive); with SF-295, 70.8 µM (inactive); in the assay with HL-60, 2.72 µM (inactive). Further, the GI50 is 3.27 µM (inactive) in the assay on HCT-116; 18.1 µM (inactive) with KM12; 1.61 µM (inactive) in the assay on RPMI-8226; 13 µM (inactive) with SK-MEL-5; 12.3 µM (inactive) with SNB-75; 3.97 µM (inactive) with T47D. For the same compound, the GI50 with CAKI-1 is 4.12 µM (inactive).
In the case of `Cc1cccc(/C=C2\CCCCCC2=O)c1`, the GI50 with SF-268, with UO-31, with UACC-257, with OVCAR-4, in the assay with MDA-N and with SK-MEL-2 was > 100 µM (inactive) each time. The GI50 with EKVX was > 100 µM (inactive); with HCT-15, > 100 µM; in the assay with HT-29, > 100 µM (inactive); in the assay with UACC-62, > 100 µM (inactive); in the assay with SF-295, > 100 µM (inactive); with HL-60, < 0.01 µM (active). For the same compound, the GI50 in the assay with HCT-116 is > 100 µM (inactive); in the assay on KM12, > 100 µM (inactive); in the assay on RPMI-8226, 60.5 µM (inactive); in the assay on SK-MEL-5 it was 79.1 µM (inactive); in the assay with SNB-75, > 100 µM (inactive); in the assay with T47D, > 100 µM (inactive). Also, the GI50 in the assay with CAKI-1 was > 100 µM (inactive).
For the compound `NC(=O)CN1C=CCC(C(N)=O)=C1` [CARICOTAMIDE], the GI50 with SF-268, with UO-31, in the assay with UACC-257, with OVCAR-4, in the assay with MDA-N and with SK-MEL-2 was > 100 µM (inactive) throughout. Further, the GI50 in the assay on EKVX is > 100 µM (inactive); in the assay on HCT-15, > 100 µM; in the assay on HT-29, > 100 µM (inactive); in the assay with UACC-62, > 100 µM (inactive); in the assay on SF-295, > 100 µM (inactive); with HL-60, > 100 µM (inactive). For the same compound, the GI50 with HCT-116, in the assay on KM12, with RPMI-8226, in the assay with SK-MEL-5, in the assay with SNB-75 and in the assay with T47D was > 100 µM (inactive) throughout. The GI50 with CAKI-1 is > 100 µM (inactive).
